The subject of assay [1] is CCD-19Lu (human lung fibroblast normal cell). Description: MTT cell viability assay, normal cell. It is filed as cell-based. Particulars: 48-h treatment. Here is the method: SUNE1 (nasopharyngeal carcinoma), AGS (gastric adenocarcinoma), HeLa (cervix adenocarcinoma), HepG2 (hepatocellular carcinoma), U-87 MG (human glioblastoma cell), U2OS (osteosarcoma), MCF-7 (breast adenocarcinoma), MDA-MB-231 (breast adenocarcinoma), HCT116 (colorectal carcinoma), SW480 (colorectal adenocarcinoma), NCI-H460 (large cell lung carcinoma), NCI-H1650 (adenocarcinoma lung carcinoma), HCC827 (adenocarcinoma lung carcinoma), A549 (lung carcinoma), and CCD-19Lu (human lung fibroblast normal cell) were all obtained from American Type Culture Collection (ATCC, Manassas, VA, USA). Minimum Essential Media (MEM, Gibco®, ThermoFisher Scientific), Dulbecco's Modified Eagle Medium (DMEM, Gibco®, ThermoFisher Scientific), and RPMI-1640 Medium (Gibco®, ThermoFisher Scientific) supplemented with 10% Fetal Bovine Serum (Gibco®, ThermoFisher Scientific), and 100 U/mL penicillin-streptomycin (Gibco™, ThermoFisher Scientific) were used for cell culture. Cells were placed into an incubator with 5% CO2 that temperature was set at 37° C. […]
The cell viability assay was performed by a typical MTT assay. […] The formed formazan was then dissolved with SDS solution (10% SDS in 10 mM HCl) and followed the determination of absorbance at 590 nm by a microplate reader. The change in cell viability was then calculated for each drug concentration, then normalized to control. […]

Assay [2] relates to AGS cell line. Description: MTT cell viability assay. It is filed as cell-based, human. Particulars: Homo sapiens, AGS; MTT method, 48 h. Here is the method: (§1) SUNE1 (nasopharyngeal carcinoma), AGS (gastric adenocarcinoma), HeLa (cervix adenocarcinoma), HepG2 (hepatocellular carcinoma), U-87 MG (human glioblastoma cell), U2OS (osteosarcoma), MCF-7 (breast adenocarcinoma), MDA-MB-231 (breast adenocarcinoma), HCT116 (colorectal carcinoma), SW480 (colorectal adenocarcinoma), NCI-H460 (large cell lung carcinoma), NCI-H1650 (adenocarcinoma lung carcinoma), HCC827 (adenocarcinoma lung carcinoma), A549 (lung carcinoma), and CCD-19Lu (human lung fibroblast normal cell) were all obtained from American Type Culture Collection (ATCC, Manassas, VA, USA). Minimum Essential Media (MEM, Gibco®, ThermoFisher Scientific), Dulbecco's Modified Eagle Medium (DMEM, Gibco®, ThermoFisher Scientific), and RPMI-1640 Medium (Gibco®, ThermoFisher Scientific) supplemented with 10% Fetal Bovine Serum (Gibco®, ThermoFisher Scientific), and 100 U/mL penicillin-streptomycin (Gibco™, ThermoFisher Scientific) were used for cell culture. Cells were placed into an incubator with 5% CO2 that temperature was set at 37° C. For subculturing cells, 0.05% Trypsin-EDTA (Gibco®) was used for detaching and a subcultivation ratio of 1:5 was used.
(§2) The cell viability assay was performed by a typical MTT assay. Briefly, 5*10^3 cells were seeded in the 96-well flat bottom plate and allowed to attach overnight. After drug treatment with a serial dilution from 100 μM for 48 h, 10 μL of MTT solution (5 mg/ml prepared in PBS, filtered) was added into each well and incubate for 4 h at 37° C. The formed formazan was then dissolved with SDS solution (10% SDS in 10 mM HCl) and followed the determination of absorbance at 590 nm by a microplate reader. The change in cell viability was then calculated for each drug concentration, then normalized to control. Dose response curves from each assay were fit to a Boltzmann sigmoidal function (GraphPad Prism8, version8.0.0). The cytotoxicity of AGB and its derivatives was determined by the calculation of IC50 value (half maximal inhibitory concentration) from fitted curves, which was the concentration of drug induced 50% cell viability.

For assay [3], the system named is MDA-MB-231 cell line. Description: MTT cell viability assay. It is filed as cell-based, human. Particulars: Homo sapiens, MDA-MB-231; MTT method, 48 h. Here is the method: as §1, §2
Background: Tetrazolium assays rely on reduction of a dye to a coloured formazan, in cell work by metabolically active cells.

Assay [4] concerns HeLa cell line. Description: MTT cell viability assay. It is filed as cell-based, human. Particulars: Homo sapiens, HeLa; MTT method, 48 h; read-out: IC50 HeLa cell line. Here is the method:
as §1, §2

In assay [5] the test system is H460 cell line. Briefly: MTT cell viability assay. It is filed as cell-based, human. Particulars: Homo sapiens, NCI-H460. Here is the method:
as §1, §2

The target in assay [6] is T1, CS (Homo sapiens, UniProt O75390).
T1 sequence (O75390 28-466): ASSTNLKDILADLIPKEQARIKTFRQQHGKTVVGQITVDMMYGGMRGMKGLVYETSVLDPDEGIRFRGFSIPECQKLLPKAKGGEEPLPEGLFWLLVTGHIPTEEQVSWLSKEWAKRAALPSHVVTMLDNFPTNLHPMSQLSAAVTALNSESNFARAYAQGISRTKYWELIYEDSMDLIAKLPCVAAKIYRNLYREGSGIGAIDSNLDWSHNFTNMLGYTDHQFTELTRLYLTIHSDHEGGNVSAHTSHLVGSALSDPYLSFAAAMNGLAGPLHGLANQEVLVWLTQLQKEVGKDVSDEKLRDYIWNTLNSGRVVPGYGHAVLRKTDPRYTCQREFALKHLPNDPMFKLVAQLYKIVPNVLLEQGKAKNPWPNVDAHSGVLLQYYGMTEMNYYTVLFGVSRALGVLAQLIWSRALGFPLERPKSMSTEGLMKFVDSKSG
Description: Tryptophan fluorescence quenching assay. It is filed as binding. Here is the method: FIG. 5A is a volcano plot (ΔTm, p-value) for TPP data obtained from NCI-H460 cells with 4 μM AGB treatment for 1 h. The criteria were set as ΔTm>2° C. and p<0.05. FIG. 5B is a graph showing results of the tryptophan fluorescence quenching assay for the direct interaction between AGB and three target proteins. Upper, tryptophan fluorescence titration of recombinant proteins with AGB. […] For CS, its fluorescence decrease was saturated when AGB concentrations increased to about 32 μM. Lower, the normalized tryptophan intensities at an emission of 320 nm were plotted as a function of total added concentration of AGB. The dissociation constants (Kd) between AGB and three proteins were then calculated by fitting this plot with Stern-Volmer Equation. […] The fluorescence intensity was presented as percentage relative to control groups. […]
To further examine whether AGB interacts directly with the above three identified proteins, the intrinsic tryptophan fluorescence properties of these proteins were examined in the presence of AGB at different concentrations. Upon binding with AGB, proteins experience a change of the tryptophan environment, which can be visualized by fluorescence spectroscopy. As shown in FIG. 5B the tryptophan fluorescence of three proteins were all quenched by AGB in a concentration-dependent manner.

The subject of assay [7] is NCI-H460 cells. Briefly: Wound healing assay (cell migration). It is filed as cell-based, human. Here is the method: For wound healing assay in the present study, the cells were grown to approximately 80% confluence in 12-well plates in the complete growth medium and then a straight line was scraped at the central part of the each well by a 200 μL pipette tip. […] […] Each condition was performed in triplicate.

The structures appear in SMILES notation. Like-named read-outs stand apart in the source and are kept apart here.

Turning to `CCCC(=O)c1c(O)c(Cc2c(O)c(Cc3c(O)c(C)c(OC)c(C(=O)CCC)c3O)c(O)c(C(=O)[C@@H](C)CC)c2O)c(O)c(C)c1OC` [AGB, Agrimol B], the IC50 (commonly the midpoint of a concentration-inhibition curve) in assay [1] worked out at 31.1 µM; in assay [2] it was 2650 nM; in assay [3] it was 2160 nM; in assay [4] it was 810 nM; in assay [5] (MTT method, 48 h, read-out: IC50 H460 cell line) it was 1850 nM; in assay [5] (for 48 h, cell line not given, read-out: IC50 value of AGB), 2300 nM. Further, in assay [6] (Stern-Volmer analysis, read-out: Kd of AGB binding to CS), the Kd (commonly the equilibrium constant for the complex coming apart) was determined as 4.9 µM. The “AGB concentration at which the CS fluorescence decrease was saturated” value in assay [6] (tryptophan fluorescence titration) is “about 32 μM”. Further, the “width of the scratch wound” value in assay [7] (1 μM of AGB) is on record as “significantly decreased”. The wound closure entry in assay [7] (4 μM or 10 μM of AGB, 16 h and 32 h) is on record as “wound closure was inhibited”. Further, the “concentration giving significant reduction of cell migration” value in assay [7] (wound healing assay) is listed as “around 4 μM”.

(Values after US20250162973A1, “METHODS OF SYNTHESIS AND USES OF AGRIMOL COMPOUNDS” (Versitech Limited, priority 2022, published 2025).)
